Data on one molecule can be found in ChEMBL document CHEMBL5131397, “Discovery and Optimization of Pyrazole Amides as Inhibitors of ELOVL1” (J Med Chem, 2021).

The target of data set [1] is Rho-associated protein kinase 2 (Homo sapiens) (UniProt O75116). The data set can be described thus: Inhibition of ROCK 2 (unknown origin) at 10 uM.
Data set [2] concerns the target T1, Serine/threonine-protein kinase TNNI3K (Homo sapiens) (UniProt Q59H18).
T1 sequence (whole entry): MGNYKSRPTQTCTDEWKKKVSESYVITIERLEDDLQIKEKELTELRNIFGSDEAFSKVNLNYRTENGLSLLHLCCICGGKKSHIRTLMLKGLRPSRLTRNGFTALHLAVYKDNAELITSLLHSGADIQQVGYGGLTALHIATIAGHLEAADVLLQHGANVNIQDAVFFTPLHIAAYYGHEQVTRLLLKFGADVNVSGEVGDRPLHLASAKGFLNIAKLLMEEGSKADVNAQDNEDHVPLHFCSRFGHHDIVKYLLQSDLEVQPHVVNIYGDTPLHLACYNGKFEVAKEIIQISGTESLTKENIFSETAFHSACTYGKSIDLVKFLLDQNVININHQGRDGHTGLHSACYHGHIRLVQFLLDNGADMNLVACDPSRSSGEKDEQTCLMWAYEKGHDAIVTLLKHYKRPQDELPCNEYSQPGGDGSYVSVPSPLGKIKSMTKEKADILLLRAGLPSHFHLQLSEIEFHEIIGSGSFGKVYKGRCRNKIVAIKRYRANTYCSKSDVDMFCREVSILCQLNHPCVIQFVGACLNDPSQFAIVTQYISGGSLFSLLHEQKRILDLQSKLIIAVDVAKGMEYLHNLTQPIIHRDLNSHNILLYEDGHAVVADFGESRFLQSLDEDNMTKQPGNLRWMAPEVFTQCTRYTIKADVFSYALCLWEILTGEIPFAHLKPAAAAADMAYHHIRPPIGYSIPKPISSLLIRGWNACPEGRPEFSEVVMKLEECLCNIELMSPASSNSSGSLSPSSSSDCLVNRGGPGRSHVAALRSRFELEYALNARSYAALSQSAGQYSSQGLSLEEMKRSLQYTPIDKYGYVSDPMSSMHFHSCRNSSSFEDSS
The data set can be described thus: Inhibition of TNNI3K (unknown origin) at 10 uM.

The target of data set [3] is T2, Very long chain fatty acid elongase 7 (Homo sapiens, UniProt A1L3X0).
T2 sequence (A1L3X0 whole entry): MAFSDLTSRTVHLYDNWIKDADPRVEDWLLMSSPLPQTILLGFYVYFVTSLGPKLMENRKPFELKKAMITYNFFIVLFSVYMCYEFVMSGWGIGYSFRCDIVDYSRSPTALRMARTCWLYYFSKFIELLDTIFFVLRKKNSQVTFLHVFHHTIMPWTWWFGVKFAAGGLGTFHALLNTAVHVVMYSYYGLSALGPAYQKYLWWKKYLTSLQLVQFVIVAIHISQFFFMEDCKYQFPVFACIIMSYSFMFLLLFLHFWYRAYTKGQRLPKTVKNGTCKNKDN
The experiment in a line: Inhibition of ELOVL7 (unknown origin) using C18-acyl-CoA as substrate by radiometric enzyme assay.

Data set [4] can be described thus: Oral bioavailability in Cynomolgus monkey at 3 mg/kg upto 24 hrs by LC/MS/MS analysis. The note with it: in vivo. The class given is ADME, organism-based, Macaca fascicularis.
A short description of data set [5]: Toxicity in Sprague-Dawley rat assessed as corneal opacities at 5 mg/kg/day, po administered for 8 weeks by macroscopic observation analysis. The class given is organism-based. As to conditions: in vivo, 1344 h.
Data set [6] is described as follows: Reduction in C26:0 LPC level in ABCD1 knock out mouse CNS at 16 mg/kg, po qd measured after 6 months of dosing by LC-MS/MS analysis. The class given is functional. The note with it: 4380 h. Also on record: scale not given: the % may be the effect or the level left.
A short description of data set [7]: Reduction in C26:0/C16:0 acyl-carnitine levels in ABCD1 knock out mouse CNS at 8 mg/kg, po qd measured after 28 days of dosing by LC-MS/MS analysis. The class given is functional. Also on record: scale not given: the % may be the effect or the level left. As to conditions: time 28 day.
Data set [8] can be described thus: Oral bioavailability in Sprague-Dawley rat at 3 mg/kg upto 24 hrs by LC/MS/MS analysis. The class given is ADME, organism-based. The note with it: in vivo.
The nature of data set [9]: Toxicity in juvenile Sprague-Dawley rat assessed as corneal mineralization at 5 to 75 mg/kg/day, po treatment started from postnatal day 18 to 114 days. The class given is organism-based. As to conditions: in vivo, dose lower 5 mg/kg/day, time lower 18 day, dose upper 75 mg/kg/day, time upper 114 day.
Data set [10] is described as follows: Intrinsic clearance in rat hepatocytes assessed per million cells. The note with it: read-out: CLH. The data set is classed as ADME, cell-based, Hepatocyte.
Data set [11] can be described thus: Toxicity in ABCD1 knock out mouse assessed as noticeable adverse effects at 8 to 32 mg/kg, po qd treated for 6 months. The data set is classed as organism-based. The note with it: in vivo, 4380 h, dose 8-32 mg/kg.
Data set [12] is described as follows: Cytotoxicity against human THLE-2 cells assessed as decrease in intracellular ATP levels incubated for 72 hrs by Cell Titer-Glo luminescence assay. The class given is toxicity, cell-based. The note with it: read-out: TC50. A general note: In ATP-based viability assays light output follows the ATP content of the culture.
Data set [13] is described as follows: Reduction in C26:0/C16:0 LPC level in wild-type Sprague-Dawley rat at 30 mg/kg, po qd treated for 7 days by LC-MS/MS analysis. The data set is classed as functional. Also on record: scale not given: the % may be the effect or the level left. As to conditions: time 7 day.
The target of data set [14] is T3, Very long chain fatty acid elongase 1 (Homo sapiens, UniProt Q9BW60).
T3 sequence (Q9BW60 whole entry): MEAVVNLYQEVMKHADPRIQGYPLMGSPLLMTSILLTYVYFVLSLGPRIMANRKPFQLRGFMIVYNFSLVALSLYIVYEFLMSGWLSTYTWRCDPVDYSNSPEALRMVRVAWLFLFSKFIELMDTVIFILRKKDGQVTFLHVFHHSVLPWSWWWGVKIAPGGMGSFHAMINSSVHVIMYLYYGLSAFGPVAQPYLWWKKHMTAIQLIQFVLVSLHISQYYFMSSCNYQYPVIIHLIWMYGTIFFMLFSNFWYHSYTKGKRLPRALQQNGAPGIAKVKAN
The experiment in a line: Inhibition of ELOVL1 in human microglia assessed as reduction of C26:0 VLCFA synthesis incubated for 48 hrs by cellular assay. The data set is classed as cell-based.

Data set [15] is described as follows: Toxicity in Sprague-Dawley rat assessed as decrease in body weight at 5 to 50 mg/kg/day, po administered for 2 weeks. The data set is classed as organism-based. The note with it: in vivo, 336 h, dose 5-50 mg/kg/day.
The target in data set [16] is T3, Very long chain fatty acid elongase 1. The experiment in a line: Inhibition of ELOVL1 in AMN 1 patient-derived fibroblast assessed as reduction of C26:0 VLCFA synthesis incubated for 48 hrs by cellular assay. The data set is classed as cell-based.
Data set [17] is described as follows: Half life in mouse at 1 mg/kg, iv upto 48 hrs by LC/MS/MS analysis. The note with it: in vivo. The data set is classed as ADME, organism-based.
A further data set concerns Mus musculus. The data set can be described thus: Reduction of C26:0 LPC level in ABCD1 KO mouse blood at 5 to 20 mg/kg, po qd for 8 months continuous dosing by LC-MS/MS analysis. The class given is functional, organism-based. As to conditions: dose 5-20 mg/kg.
A short description of data set [18]: Tmax in Beagle dog at 3 mg/kg, po upto 24 hrs by LC/MS/MS analysis. The class given is ADME, organism-based, Canis lupus familiaris. As to conditions: in vivo.
Data set [19] can be described thus: Reduction in C26:0/C16:0 LPC level in ABCD1 knock out mouse CNS at 1 mg/kg, po qd measured after 3 months of dosing by LC-MS/MS analysis. The arrangement: scale not given: the % may be the effect or the level left. As to conditions: 2190 h. The data set is classed as functional.
Data set [20] in a line: Cmax in Cynomolgus monkey at 3 mg/kg, po upto 24 hrs by LC/MS/MS analysis. As to conditions: in vivo. The arrangement: time < 24 hrs, dose 3 mg/kg, route po. The data set is classed as ADME, organism-based, Macaca fascicularis.
A short description of data set [21]: Toxicity in juvenile Sprague-Dawley rat assessed as stomach lesions at 5 to 75 mg/kg/day, po treatment started from postnatal day 18 to 114 days. The class given is organism-based. The note with it: in vivo, dose lower 5 mg/kg/day, time lower 18 day, dose upper 75 mg/kg/day, time upper 114 day.

As a reminder, the inhibition is the drop in the measured response relative to a control, in per cent. The term IC50 denotes the concentration needed to halve the response being measured. The term bioavailability denotes dose-corrected exposure relative to a reference, in per cent. By half-life is commonly meant the time needed for the level to fall by half in the phase considered. The term Tmax denotes the time from dosing to the highest level. By Cmax is commonly meant the peak of the concentration-time curve.

Active and inactive are the calls of the source.

Rho-associated protein kinase 2 (Homo sapiens), sequence (O75116 whole entry, looked up): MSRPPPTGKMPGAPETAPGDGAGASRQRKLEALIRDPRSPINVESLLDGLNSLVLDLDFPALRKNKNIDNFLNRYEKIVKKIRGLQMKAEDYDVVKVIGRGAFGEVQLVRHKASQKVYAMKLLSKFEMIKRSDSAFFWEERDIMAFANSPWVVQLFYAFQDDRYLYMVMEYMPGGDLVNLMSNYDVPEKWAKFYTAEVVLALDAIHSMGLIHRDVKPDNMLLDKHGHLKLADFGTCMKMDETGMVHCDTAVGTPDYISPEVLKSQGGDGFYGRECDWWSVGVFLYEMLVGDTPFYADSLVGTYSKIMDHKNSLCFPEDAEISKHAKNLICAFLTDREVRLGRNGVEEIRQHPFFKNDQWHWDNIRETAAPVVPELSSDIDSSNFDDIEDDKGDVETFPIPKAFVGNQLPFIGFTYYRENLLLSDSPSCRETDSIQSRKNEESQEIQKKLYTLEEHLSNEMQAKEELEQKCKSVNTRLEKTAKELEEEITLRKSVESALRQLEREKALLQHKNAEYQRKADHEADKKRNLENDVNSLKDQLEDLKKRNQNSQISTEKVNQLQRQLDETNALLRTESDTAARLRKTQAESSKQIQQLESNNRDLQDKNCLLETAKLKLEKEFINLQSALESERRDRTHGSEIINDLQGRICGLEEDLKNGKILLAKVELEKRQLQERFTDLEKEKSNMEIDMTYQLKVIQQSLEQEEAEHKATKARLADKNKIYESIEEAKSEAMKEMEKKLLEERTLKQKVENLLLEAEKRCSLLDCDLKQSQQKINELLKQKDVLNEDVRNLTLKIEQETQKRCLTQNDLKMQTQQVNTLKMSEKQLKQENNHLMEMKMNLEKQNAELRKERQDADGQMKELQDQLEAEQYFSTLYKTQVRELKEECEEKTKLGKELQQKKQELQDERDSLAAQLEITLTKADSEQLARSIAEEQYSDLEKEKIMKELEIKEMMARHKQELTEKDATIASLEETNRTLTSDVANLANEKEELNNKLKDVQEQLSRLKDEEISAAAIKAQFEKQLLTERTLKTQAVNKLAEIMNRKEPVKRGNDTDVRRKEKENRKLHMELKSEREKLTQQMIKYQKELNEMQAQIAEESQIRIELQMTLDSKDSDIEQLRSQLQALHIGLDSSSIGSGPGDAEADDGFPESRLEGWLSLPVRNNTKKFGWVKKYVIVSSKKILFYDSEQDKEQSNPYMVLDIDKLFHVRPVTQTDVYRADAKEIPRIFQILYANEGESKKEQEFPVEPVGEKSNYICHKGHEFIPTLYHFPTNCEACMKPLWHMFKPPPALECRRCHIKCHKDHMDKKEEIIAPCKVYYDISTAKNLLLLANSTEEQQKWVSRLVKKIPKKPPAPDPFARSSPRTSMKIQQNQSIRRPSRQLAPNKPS

As to `O=C(Nc1ccn(-c2ccnc(F)c2)n1)C1(c2ccccc2F)CC1`, the inhibition in data set [1] and in data set [2] was greater than 50% in each case. In addition, the IC50 in data set [3] was greater than 500000 nM; in data set [14] it was 11 nM; in data set [16], 43 nM. The same molecule gave a bioavailability in data set [4] of 100%. Further, the Activity entry is reported as “Toxic” in [5]; 51% in data set [6]; 55% in [7]; “Toxic” in data set [9]; “Non-Toxic” in data set [11]; 67% in [13]. Moreover, the Activity entry in [15] is “Toxic”; in data set [19], 25%; in [21] it was “Toxic”. Also, the F in [8] was determined as 66%. Moreover, the hepatocyte CLint in [10] was determined as 14 µL/min/1e6 cells. Also, in [12], the CC50 at 72 h is greater than 100000 nM. In data set [17], this molecule showed a half-life of 2.9 h. Besides, the outcome in the data set with Mus musculus was Active. The time to peak (Tmax) in data set [18] is 0.5 h. Also, the highest concentration (Cmax) in data set [20] is 404 ng/mL.
